From US20240299299A1, “COMPOSITIONS AND METHODS FOR INCREASING THE EFFICACY OF IMMUNOTHERAPIES AND VACCINES” (The Regents of the University of Michigan, priority 2021, published 2024)

Tests used:
OT-I CD8+ T cells [1] = test: In vitro central memory (Tcm) differentiation of OT-I CD8+ T cells activated with SIINFEKL peptide and IL-2 with metabolites; assay type: cell-based, mice; details: day 8; metabolite-supplemented medium (arginine 3 mM, 3-methylhistidine 3 mM, DHB 100 μM, sodium ferulate 100 μM)
Protocol: (§1) FIG. 2: a) OT-I CD8+ T cells were cultured with different metabolites in vitro as indicated, b,c) shown is the frequency of CD44^+CD62L^+ Tcm CD8+ T cells on day 8. d) OT-I CD8+ T cells were activated with α-CD3/α-CD28 antibodies in presence of metabolites as indicated and shown is the Tcm CD8+ T cells on day 7. Data represent the mean±s.e.m. (n=5).
(§2) Splenocytes from OT-I mice were obtained aseptically. The cells were cultured in 96-well plates (1×10^5 cells per well). For Tcm differentiation study, cells were activated with SIINFEKL peptide (4×10^−9M) in the presence of various metabolites (arginine: 3 mM; 3-methylhistidine: 3 mM; N-acetylneuraminate: 100 μM; disodium sebacate: 100 μM; DHB: 100 μM; pantothenate: 100 μM; γ-aminobutyric acid: 100 μM; glycerol: 100 μM; AICAR: 100 μM, sodium ferulate: 100 μM) for 3 days. Then cells were washed three times with T-cell medium and further cultured with IL-2 (10 ng ml^−1; PeproTech) in the presence of metabolites for 5 days. The cells were then washed twice and re-activated with SIINFEKL peptide (10 μM) for 2 h. The suspension cells were collected, blocked with CD16/32 antibody and stained with the fixable viability dye eFluor 450, FITC-CD44 rat anti-human/mouse and PE-CD62L monoclonal antibody. To test if the central memory CD8+ T cells differentiation is dependent on dendritic cells, CD8 T cells isolated from the spleen in OT-I mice were incubated in the 96-well plate, which was precoated with anti-hamster IgG antibody. […] (1 μg mL^−1) and IL-2 (100 U mL^−1) were added into each well in the presence of 3-methylhistidine (3 mM), DHB (100 μM), or sodium ferulate (100 μM) for 2 days. Then cells were washed for three times to remove α-CD3/α-CD28 antibodies and further incubated with metabolites and IL-2 (10 ng ml^−1) for 5 days. Thereafter, cells were collected for central memory CD8^+ T cells analysis. For CD8^+ T cells survival study, cells were activated with antigen peptide as above, following with thoroughly washing, and incubation in presence of IL-2 for 2 days. Metabolites were added during this incubation (arginine: 3 mM, 1 mM; 3-methylhistidine: 3 mM, 1 mM, 500 μM, 100 μM; N-acetylneuraminate: 100 μM; disodium sebacate: 100 μM; DHB: 100 μM, 50 μM, 20 μM; pantothenate: 100 μM; γ-aminobutyric acid: 100 μM; glycerol: 100 μM; AICAR: 100 μM). Then cells were further incubated in absence of both IL-2 and metabolites for 36 h to induce the apoptosis/dead. For Tcf1^+CD8^+ differentiation study, cells were activated with antigen peptide as above, followed by thoroughly washing, and incubation with metabolites in presence of IL-2 for 3 days. […] Tcf1^+CD8^+, CD44^+CD62L^+CD8^+ and survival (stained with Annexin V-APC and PI) T cells were detected via flow cytometry.

OT-I CD8+ T cells [2] = test: Tcm differentiation of isolated OT-I CD8+ T cells activated with α-CD3/α-CD28 in the absence of dendritic cells; assay type: cell-based, mice; details: α-CD3/α-CD28 activation; 3-methylhistidine 3 mM, DHB 100 μM; day 7
Protocol: as §1
Splenocytes from OT-I mice were obtained aseptically. The cells were cultured in 96-well plates (1×10^5 cells per well). For Tcm differentiation study, cells were activated with SIINFEKL peptide (4×10^−9M) in the presence of various metabolites (arginine: 3 mM; 3-methylhistidine: 3 mM; N-acetylneuraminate: 100 μM; disodium sebacate: 100 μM; DHB: 100 μM; pantothenate: 100 μM; γ-aminobutyric acid: 100 μM; glycerol: 100 μM; AICAR: 100 μM, sodium ferulate: 100 μM) for 3 days. Then cells were washed three times with T-cell medium and further cultured with IL-2 (10 ng ml^−1; PeproTech) in the presence of metabolites for 5 days. The cells were then washed twice and re-activated with SIINFEKL peptide (10 μM) for 2 h. The suspension cells were collected, blocked with CD16/32 antibody and stained with the fixable viability dye eFluor 450, FITC-CD44 rat anti-human/mouse and PE-CD62L monoclonal antibody. […] Tcf1^+CD8^+, CD44^+CD62L^+CD8^+ and survival (stained with Annexin V-APC and PI) T cells were detected via flow cytometry.

OT-I CD8+ T cells [3] = test: Tcf1+CD8+ differentiation of OT-I T cells with metabolites; assay type: cell-based, mice; details: day 6
Protocol: FIG. 3: a) OT-I CD8+ T cells were cultured with different metabolites in vitro as indicated, b,c) shown are the frequency of the Tcf1^+CD8+ T cells and the representative flow cytometry plots on day 6. Data represent the mean±s.e.m. (n=5).
as §2, with “days.” for “days. Metabolites were added during this incubation (arginine: 3 mM, 1 mM; 3-methylhistidine: 3 mM, 1 mM, 500 μM, 100 μM; N-acetylneuraminate: 100 μM; disodium sebacate: 100 μM; DHB: 100 μM, 50 μM, 20 μM; pantothenate: 100 μM; γ-aminobutyric acid: 100 μM; glycerol: 100 μM; AICAR: 100 μM). Then cells were further incubated in absence of both IL-2 and metabolites for 36 h to induce the apoptosis/dead. For Tcf1^+CD8^+ differentiation study, cells were activated with antigen peptide as above, followed by thoroughly washing, and incubation with metabolites in presence of IL-2 for 3 days.”

OT-I CD8+ T cells [4] = test: CD8+ T cell survival upon IL-2 withdrawal (Annexin V/PI); assay type: cell-based, mice; details: dependent on the dose of metabolites
Protocol: FIG. 4: a) OT-I CD8+ T cells were cultured with different metabolites in vitro as indicated, b,c) shown are the level of survival CD8+ T cells (Annexin V^−PI^−) as well as the representative flow cytometry plots on day 5.5. Data represent the mean±s.e.m. (n=5).
as §2, with “days.” for “days. Metabolites were added during this incubation (arginine: 3 mM, 1 mM; 3-methylhistidine: 3 mM, 1 mM, 500 μM, 100 μM; N-acetylneuraminate: 100 μM; disodium sebacate: 100 μM; DHB: 100 μM, 50 μM, 20 μM; pantothenate: 100 μM; γ-aminobutyric acid: 100 μM; glycerol: 100 μM; AICAR: 100 μM). Then cells were further incubated in absence of both IL-2 and metabolites for 36 h to induce the apoptosis/dead. For Tcf1^+CD8^+ differentiation study, cells were activated with antigen peptide as above, followed by thoroughly washing, and incubation with metabolites in presence of IL-2 for 3 days.”

[5] = test system: CT26 colon carcinoma cells; test: CT26 tumor model, intratumoral metabolites plus α-PD-1; assay type: in vivo, BALB/c mice
Protocol: FIG. 5: a) Therapeutic treatment regimen. BALB/c mice were s.c. inoculated with 1.5×10^5 CT26 colon carcinoma cells. The candidate metabolites were injected intratumorally every other day, 100 μg α-PD-1 was i.p. injected on days 9, 12, 16 and 20. b) Average tumor growth, c) individual tumor growth, and d) overall Kaplan-Meier survival are shown. Data represent the mean±s.e.m. (n=5).
(§3) Animals were cared for following the federal, state and local guidelines. All work conducted on animals was in accordance with and approved by the Institutional Animal Care and Use Committee (IACUC). Female (6-8 weeks old) BALB/c mice from Jackson Laboratory were inoculated with 1.5×10^5 CT26 cells per mouse on the right flank by s.c. injection. Tumor-bearing mice were randomly assigned to different treatment groups. For intratumoral injection study, the mice were injected with 3-methylhistidine (dose: 1 mg per mouse), sodium hippurate (dose: 1 mg per mouse), disodium sebacate (dose: 1 mg per mouse), sodium ferulate (dose: 1 mg per mouse), or DHB (dose: 0.5 mg per mouse) in 40 μL PBS buffer for every other day. The mice were i.p. injected with α-PD-1 antibody (100 μg per dose; clone RMP1-14, Bioxcell) on days 9, 12, 16 and 20 post tumor inoculation. For oral administration study, the mice were injected with 3-methylhistidine (dose: 3 mg per mouse), sodium hippurate (dose: 3 mg per mouse), disodium sebacate (dose: 3 mg per mouse), sodium ferulate (dose: 3 mg per mouse), or DHB (dose: 2.4 mg per mouse) in PBS buffer for 3 times every 4 days. α-PD-1 was injected on days 10, 14, 18 and 22. The tumor size was measured, and the tumor volume was calculated as ½×(length×width^2). Tumor-bearing mice were euthanized when the tumor size reached 1.5 cm in any diameter or when the animals became moribund with severe weight loss (>20%) or tumor ulceration.

[6] = test system: CT26 colon carcinoma cells; test: CT26 tumor model, orally administered metabolites plus α-PD-1; assay type: in vivo, BALB/c mice; details: oral gavage 3 times every 4 days (DHB 2.4 mg, 3-methylhistidine 3 mg per mouse) plus α-PD-1 i.p.
Protocol: FIG. 6: a) Therapeutic treatment regimen. BALB/c mice were s.c. inoculated with 1.5×10^5 CT26 colon carcinoma cells. The candidate agents were orally administrated 3 times every 4 days, 100 μg α-PD-1 was injected i.p. on days 10, 14, 18 and 22. b) Average tumor growth, c) individual tumor growth. Data represent the mean±s.e.m. (n=4-5).
as §3, with “For oral administration study, the mice were injected with 3-methylhistidine (dose: 3 mg per mouse), sodium hippurate (dose: 3 mg per mouse), disodium sebacate (dose: 3 mg per mouse), sodium ferulate (dose: 3 mg per mouse), or DHB (dose: 2.4 mg per mouse) in PBS buffer for 3 times every 4 days. α-PD-1 was injected on days 10, 14, 18 and 22.” left out, “Tumor-bearing mice were euthanized when the tumor size reached 1.5 cm in any diameter or when the animals became moribund with severe weight loss (>20%) or tumor ulceration.” left out

[7] = test system: activated T cells, MC38, B16F10, and CT26 tumor cells; test: In vitro cell viability of DHB at various concentrations; assay type: cell-based; details: concentration below 1 mM
Protocol: (§4) FIG. 7: a-d) In vitro cell viability of DHB at various concentrations in activated T cells, MC38, B16F10, and CT26 tumor cells. e) BALB/c mice were s.c. inoculated with 1.5×10^5 CT26 colon carcinoma cells. DHB (2.4 mg per dose) or 3-methylhistidine (3 mg per dose) was i.p. injected 3 times every 4 days, 100 μg α-PD-1 was i.p. injected on days 11, 15, and 20. Shown is the average tumor growth. Data represent the mean±s.e.m. (n=4-5).

[8] = test system: CT26 colon carcinoma cells; test: CT26 tumor model, metabolite monotherapy i.p. without α-PD-1; assay type: in vivo, BALB/c mice; details: monotherapy without α-PD-1 IgG; i.p. DHB 2.4 mg or 3-methylhistidine 3 mg per dose
Protocol: as §4

[9] = test system: CT26 colon carcinoma cells; test: CT26 tumor model, oral prodrug #717 plus α-PD-1; assay type: in vivo, BALB/c mice; details: 2 mg per dose every other day starting day 8
Protocol: FIG. 10: BALB/c mice were s.c. inoculated with 1.5×10^5 CT26 colon carcinoma cells. The prodrug #717 (2 mg per dose) were orally administrated every other day starting day 8. 100 μg α-PD-1 was injected i.p. on days 11 and 16. Shown is the average tumor growth. Data represent the mean±s.e.m. (n=5).

SMILES | differentiation of CD44+CD62L+ central memory CD8+ T cells (OT-I CD8+ T cells [1]) | induction of central memory CD8+ T cells in the absence of dendritic cells (OT-I CD8+ T cells [2]) | frequency of Tcf1+CD8+ T cells (OT-I CD8+ T cells [3]) | survival of activated CD8+ T cells (OT-I CD8+ T cells [4]) | systemic antitumor efficacy of α-PD-1 treatment and CT26 tumor growth ([5]; intratumoral every other day (DHB 0.5 mg, 3-methylhistidine 1 mg per mouse) plus α-PD-1 i.p.) | tumor-free mice on day 70 ([5]; intratumoral metabolite plus α-PD-1 i.p.) [%] | efficacy of α-PD-1 treatment [6] | cell toxicity [7] | tumor growth in vivo [8] | synergy with α-PD-1 against tumor growth in vivo [9]
O=C(O)c1ccc(O)c(O)c1 [DHB, 3,4-dihydroxybenzoate] | significantly increased the differentiation | can also induce central memory CD8^+ T cells | increased the frequency | significantly increased the survival | improved the systemic antitumor efficacy of α-PD-1 treatment and slowed down the CT26 tumors growth | 80 | improved the efficacy of α-PD-1 treatment | low cell toxicity | did not inhibit the tumor growth | 
COC(=O)[C@H](Cc1cncn1C)NC(=O)OC(C)(C)C [Prodrug #717, methyl Na-(tert-butoxycarbonyl)-Np-methyl-L-histidinate] |  |  |  |  |  |  |  |  |  | did not synergize
